These results are taken from patent US12583820B2, “Broad spectrum antivirals against coronavirus” (priority 2020, dated 2026).

The test system of data set [1] is Huh-7, CRFK or CCL1 cells. The experiment in a line: Nonspecific cytotoxic effects (CC50), CytoTox 96 kit. The conditions noted are these: 72 h, 1 to 100 μM, Table 1.
The subject of data set [2] is MERS-CoV. Put plainly: microbe, parasite or virus in culture. Type of data set: cell-based. The conditions noted are these: read-out: EC50 in cell culture (μM) MERS-CoV.
Data set [3] deals with feline infectious peritonitis (FIP), a coronavirus-induced systemic disease. The conditions noted are these: cited from earlier work.

Molecules are shown by their SMILES.

For the molecule `CC(C)C[C@H](NC(=O)OCc1ccccc1)C(=O)N[C@@H](C[C@@H]1CCNC1=O)C(O)S(=O)(=O)[O-].[Na+]` (stereo partly drawn) [GC376, reference compound], the CC50 in data set [1] was above 100000 nM. In addition, in data set [2], the concentration giving a half-maximal response (EC50) came to […]. Further, the “clinical efficacy in cats with feline infectious peritonitis (FIP)” value in data set [3] is “reversed the progression of FIP and resulted in clinical remission”.
